Assay results as given in patent publication US7056679B2, “Target specific screening and its use for identifying target binders” (Antyra, Inc., priority 2001, dated 2006).

Assays:
[1] = system: lactate dehydrogenase (LDH); experiment: ELISA analysis of phage on LDH (irrelevant, non-specific target); format: binding; settings: peptide binding to LDH polypeptide (non-specific binding); phage ELISA units read at 405 nm
Method in brief: (§1)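 Phage from picked clones (M13KO7 helper) bound 2 hr at room temperature to wells coated overnight at 4 °C with 500 ng/well anti-ETAG antibody or LDH, milk-blocked. Detection with HRP-anti-M13 (1:3000) and ABTS at 405 nm; positive when A405 ≥2-fold over background.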

E-tag antibody = experiment: ELISA analysis of phage on antibody raised against ETAG (positive control); settings: peptide binding to E-tag antibody; phage ELISA units read at 405 nm
Method in brief: as §1

DGI-2 = biological target: T1, DGI-2 (Homo sapiens, UniProt Q15004); experiment: ELISA analysis of phage on DGI-2 polypeptide (specific binding); settings: for DGI-2 (OD): binding to DGI-2 polypeptide (specific binding), phage ELISA units read at 405 nm; for DGI-2/LDH (OD): ratio of specific binding to non-specific binding
T1 construct: encompassed the entire DGI-2 open reading frame (ORF); His-tag of vector pIVEX2.3-MCS (inferred from the vector and from the reverse primer lacking a stop codon); made in house; host or cells: cell-free in vitro translation (Rapid Translation System RTS, Roche; E. coli lysate)
T1 sequence (Q15004 1-111): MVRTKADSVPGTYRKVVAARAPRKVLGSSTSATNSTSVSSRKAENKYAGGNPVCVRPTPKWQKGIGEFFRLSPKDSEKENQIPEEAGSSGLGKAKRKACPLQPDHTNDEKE
Method in brief: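 Recombinant DGI-2 from in vitro translation, LDH (non-specific) and controls were coated at 500 ng/well and blocked with 2% milk-PBS. Phage from individual clones bound for 2 hr at room temperature, then anti-M13-HRP with ABTS was read at 405 nm; a clone counted as positive at ≥2-fold over background.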

| Substance | LDH (OD) [1] | ETAG (OD) (E-tag antibody) | DGI-2 (OD) (DGI-2) | DGI-2/LDH (OD) (DGI-2) |
| --- | --- | --- | --- | --- |
| VVHTRAWGSWAYGFVLRNRG (DGI-2-20F-PP-F10; listed as Escherichia coli) | 1.3 OD | 42.5 OD | 3.5 OD | 2.8 |
| VVRQGCMAFSGLCSGVTESE (DGI-2-20R-3-C8; listed as Escherichia coli) | 1.1 OD | 21.1 OD | 5.6 OD | 5.3 |
| VWAAWVEGSLLSPRQEPVRD (DGI-2-20R-4-G4; listed as Escherichia coli) | 1.0 OD | 13.6 OD | 10.2 OD | 9.8 |
| VWRDWVNGTVGLRNREKPGV (DGI2-20R-3-A5; listed as Escherichia coli) [DGI-2-20R-3-A5] | 1.1 OD | 14.9 OD | 10.9 OD | 9.8 |
| WAASCFWGHVALGCGRNGQG (DGI-2-20R-3-A11; listed as Escherichia coli) | 1.1 OD | 14.7 OD | 6.2 OD | 5.7 |
| WAGSTDLWQLWSLWVKPELR (DGI-2-20F-3-B7; listed as Escherichia coli) | 0.9 OD | 16.4 OD | 1.6 OD | 1.6 |
| WEVGQVEKFSRGVGGWWPTG [DGI-2-20R-3-D3] | 1.0 OD | 16.8 OD | 8.3 OD | 8.3 |
| WFTHVVEKIF [DGI-2-40F-3-A4] | 0.8 OD | 6.7 OD | 1.1 OD | 1.3 |
| WGCVFRQWASGSGAGCARRH (DGI-2-20R-3-D9; listed as Escherichia coli) | 1.0 OD | 19.7 OD | 6.7 OD | 6.4 |
| WRARSSGYLFALTPNFGVPHIPSSALRRMH.GLMARDLRPV [DGI-2-40F-3-C10] | 0.9 OD | 7.7 OD | 1.1 OD | 1.3 |
| WVVALRRIRLGLRRGVECLL (DGI-2-20F-PP-D5; listed as Escherichia coli) | 1.2 OD | 33.6 OD | 2.7 OD | 2.3 |
| WWERFVWGRPVDDGVVVMAT (DGI-2-20R-3-B1; listed as Escherichia coli) | 1.0 OD | 14.5 OD | 6.3 OD | 6.2 |
| WWREWVDGSLRGGGGTVLKD (DGI-2-20R-3-A122; listed as Escherichia coli) | 1.0 OD | 15.1 OD | 9.6 OD | 9.4 |
| YAMSSRECGIRNSGLILSMW (DGI-2-20F-PP-C9; listed as Escherichia coli) | 0.9 OD | 31.6 OD | 3.5 OD | 3.9 |
| YDQVWNSLLAAVLGGQELVN (DGI-2-20F-3-D112; listed as Escherichia coli) | 1.0 OD | 19.9 OD | 1.4 OD | 1.4 |
| YGTAGLFLRRACTMSDPGDPLGRRGYTGWGVLWDEWVTGS (DGI-2-40F-3-C8; listed as Escherichia coli) | 0.9 OD | 13.6 OD | 5.7 OD | 6.0 |
| YTPASILTGFQRGYEGAGNG (DGI-2-20R-4-G7; listed as Escherichia coli) | 1.2 OD | 11.6 OD | 4.7 OD | 3.9 |
